Data taken from the Deep4Chem optical property database.

Assay: solvent given as SMILES

Q: Which fluorescence lifetime (in C1CCCCC1) does the source give for `C#Cc1ccc2ccc3cccc4ccc1c2c34` here?
A: 14.9 ns

Q: What about the fluorescence lifetime (in CC#N) of the same compound?
A: 13.4 ns

Q: And the fluorescence lifetime (in CO)?
A: 17.8 ns

Q: What about the fluorescence lifetime (in ClCCl) of the same compound?
A: 20.5 ns

Q: What does the source list for `Cc1ccc(C2=C3C=CC=[N+]3[B-](F)(F)n3cccc32)cc1`?
A: fluorescence lifetime (in C1CCCCC1): 0.34 ns; fluorescence lifetime (in CC#N): 0.196 ns; fluorescence lifetime (in CCO): 0.253 ns; fluorescence lifetime (in CCOC(C)=O): 0.237 ns; fluorescence lifetime (in CO): 0.197 ns; fluorescence lifetime (in OCC(F)(F)F): 0.323 ns

Q: For `COCCN1C(=O)/C(=C/c2cccc(N(C)C)c2)N=C1C`, which fluorescence lifetime (in C1CCOC1) is on record?
A: 14.7 ns

Q: What about the fluorescence lifetime (in CC#N) of the same compound?
A: 7.9 ns

Q: What about the fluorescence lifetime (in CCCCCC) of the same compound?
A: 21.2 ns

Q: With `Cc1ccc(-c2cc(/C=C/c3ccc(N(c4ccccc4)c4ccccc4)cc3)c(-c3ccc(C)cc3)cc2/C=C/c2ccc(N(c3ccccc3)c3ccccc3)cc2)cc1` as the compound, how does the fluorescence lifetime (in ClCCl) read?
A: 1.34 ns

Q: With `CCC(CC)COC1=CC2=C3c4cc(OCC(CC)CC)c(-c5cccs5)n4[B-](F)(F)[n+]4c3n(c3cc(C(C)(C)C)ccc34)[B-](F)(F)[N+]2=C1c1cccs1` as the compound, how does the fluorescence lifetime (in C1CCOC1) read?
A: 0.5 ns

Q: And the fluorescence lifetime (in ClCCl)?
A: 0.7 ns

Q: Which fluorescence lifetime (in ClCCl) does the source give for `Cc1ccc(N(c2ccc(C)cc2)c2ccc3c4cccc5c(N(c6ccc(C)cc6)c6ccc(C)cc6)ccc(c6cccc2c63)c54)cc1` here?
A: 6.25 ns

Q: With `CN(C)c1ccc(C(=Cc2ccc(/C=C/c3ccc(C#N)cc3)cc2)c2ccc(N(C)C)cc2)cc1` as the compound, how does the fluorescence lifetime (in C1CCOC1) read?
A: 1 ns

Q: Which fluorescence lifetime (in O=P(c1ccccc1)(c1ccccc1)c1ccccc1Oc1ccccc1P(=O)(c1ccccc1)c1ccccc1) does the source give for `Cc1cc(-n2c3ccccc3c3cc4c(cc32)C2c3ccccc3C4c3ccccc32)c(C)cc1-c1nc(-c2ccccc2)nc(-c2ccccc2)n1` here?
A: 10.5 ns

Q: Which fluorescence lifetime (in C1CCCCC1) does the source give for `CC(=O)Nc1ccccc1C(=O)OC1CC(C)CCC1C(C)C` (configuration not stated) here?
A: 4 ns

Q: And the fluorescence lifetime (in CC#N)?
A: 3.4 ns

Q: What about the fluorescence lifetime (in CCO) of the same compound?
A: 3.6 ns

Q: What about the fluorescence lifetime (in Cc1ccccc1) of the same compound?
A: 3.9 ns

Q: What does the source list for `CC1=[N+]2C(=C(c3ccc(Br)cc3)c3ccc(C)n3[B-]2(F)F)C=C1c1cc2n(c1)[B-](F)(F)[N+]1=CC=CC1=C2c1c(C)cc(C)cc1C`?
A: fluorescence lifetime (in C1CCCCC1): 3.01 ns; fluorescence lifetime (in CCOC(C)=O): 0.938 ns

Q: With `N#CC1=c2c3cccc4c(Br)ccc(c43)n2[B-](F)(F)[n+]2ccccc21` as the compound, how does the fluorescence lifetime (in ClCCl) read?
A: 7.8 ns

Q: For `Cc1ccc(-c2ccc(-c3ccc(-c4ccc(C)cc4)cc3/C(=C(/c3ccccc3)c3cc(-c4ccc(C)cc4)ccc3-c3ccc(-c4ccc(C)cc4)cc3)c3ccccc3)cc2)cc1`, which fluorescence lifetime (in C1CCOC1) is on record?
A: 8.6 ns

Q: Which fluorescence lifetime (in O) does the source give for `COc1ccc2c(c1)c(=O)c1ccccc1n2CCCCCC(=O)O` here?
A: 17 ns

Q: Which fluorescence lifetime (in O) does the source give for `O=C([O-])COc1cc(NC(=O)c2ccc(-c3c4cc(Cl)c(=O)cc-4oc4cc(O)c(Cl)cc34)c(C(=O)[O-])c2)ccc1N(CC(=O)[O-])CC(=O)[O-]` here?
A: 1.21 ns

Q: With `CC(C)(C)C#Cc1ccc2c3cccc4cccc(c5cccc1c52)c43` as the compound, how does the fluorescence lifetime (in C1CCCCC1) read?
A: 4.3 ns

Q: With `O=P1(c2ccccc2)c2ccc(N3c4ccccc4Sc4ccccc43)cc2-c2cc(N3c4ccccc4Sc4ccccc43)ccc21` as the compound, how does the fluorescence lifetime (in c1ccc2c(c1)c1ccccc1n2-c1ccc(-c2ccc(-n3c4ccccc4c4ccccc43)cc2)cc1) read?
A: 26 ns

Q: For `CC1=CC(C)=[N+]2C1=C(c1ccccc1)c1c(C)c(-c3cccs3)c(C)n1[B-]2(F)F`, which fluorescence lifetime (in Cc1ccccc1) is on record?
A: 3.2 ns

Q: With `CCCCCCOc1ccc(C#Cc2ccc(C#CC#Cc3ccc(C#Cc4ccc(OCCCCCC)c(OCCCCCC)c4)c4nsnc34)c3nsnc23)cc1OCCCCCC` as the compound, how does the fluorescence lifetime (in CN(C)C=O) read?
A: 0.5 ns

Q: And the fluorescence lifetime (in COc1ccccc1)?
A: 2.2 ns

Q: And the fluorescence lifetime (in Cc1ccccc1)?
A: 1.9 ns

Q: And the fluorescence lifetime (in ClC(Cl)Cl)?
A: 2.6 ns

Q: What about the fluorescence lifetime (in ClCCCl) of the same compound?
A: 2 ns

Q: What about the fluorescence lifetime (in ClCCl) of the same compound?
A: 2.5 ns

Q: What does the source list for `N#CC(C#N)=C(/C=C/c1cc2c3c(c1)CCCN3CCC2)c1ccc2c3c(cccc13)CC2`?
A: fluorescence lifetime (in C1CCOC1): 5.6 ns; fluorescence lifetime (in CC#N): 2.62 ns; fluorescence lifetime (in CC(C)=O): 2.8 ns; fluorescence lifetime (in CCOC(C)=O): 5.46 ns; fluorescence lifetime (in CN(C)C=O): 2.67 ns; fluorescence lifetime (in CO): 1.63 ns; fluorescence lifetime (in Cc1ccccc1): 4.48 ns; fluorescence lifetime (in ClC(Cl)Cl): 6.68 ns

Q: Which fluorescence lifetime (in CO) does the source give for `COCCOCCOCCN1C(=O)c2cc(NCCOCCO)c3c4c(cc(NCCOCCO)c(c24)C1=O)C(=O)N(CCOCCOCCOC)C3=O` here?
A: 8.2 ns

Q: And the fluorescence lifetime (in ClC(Cl)Cl)?
A: 9.6 ns

Q: What about the fluorescence lifetime (in O) of the same compound?
A: 4.3 ns

Q: With `CCC1=C(C)C2=C(C)c3cc(I)c(I)n3[B-](F)(F)[N+]2=C1C` as the compound, how does the fluorescence lifetime (in C1CCCCC1) read?
A: 1.02 ns

Q: What about the fluorescence lifetime (in CC(C)=O) of the same compound?
A: 0.82 ns

Q: What about the fluorescence lifetime (in CCO) of the same compound?
A: 0.939 ns

Q: What about the fluorescence lifetime (in CCOC(C)=O) of the same compound?
A: 0.893 ns

Q: And the fluorescence lifetime (in CO)?
A: 0.882 ns

Q: And the fluorescence lifetime (in OCC(F)(F)F)?
A: 0.779 ns

Q: Which fluorescence lifetime (in C1CCCCC1) does the source give for `CC(=O)c1ccc(-c2nc3ccc(N(C)C)cc3s2)cc1` here?
A: 2.2 ns

Q: With `c1ccc(Nc2nc(Nc3ccccc3)nc(Nc3ccc4cc5ccccc5cc4c3)n2)cc1` as the compound, how does the fluorescence lifetime (in C1COCCO1) read?
A: 13.3 ns

Q: And the fluorescence lifetime (in CCOC(C)=O)?
A: 9 ns

Q: Which fluorescence lifetime (in ClC(Cl)Cl) does the source give for `CC[Si](CC)(CC)c1cc2ccc3cccc4ccc(c1C(=O)NC(C)(C)C)c2c34` here?
A: 7.63 ns

Q: For `CC(C)(C)c1ccc2c(c1)c1cc(C(C)(C)C)ccc1n2-c1ccc(-c2ccc3c(c2)C2(c4cc(-c5ccc(-n6c7ccc(C(C)(C)C)cc7c7cc(C(C)(C)C)ccc76)cc5)ccc4-3)c3ccccc3S(=O)(=O)c3ccccc32)cc1`, which fluorescence lifetime (in ClCCl) is on record?
A: 1.8 ns

Q: What does the source list for `CCC(CC)COC1=CC2=C3c4cc(OCC(CC)CC)c(-c5cccs5)n4[B-](F)(F)[n+]4nnn(c43)[B-](F)(F)[N+]2=C1c1cccs1`?
A: fluorescence lifetime (in C1CCOC1): 0.5 ns; fluorescence lifetime (in ClCCl): 0.5 ns
